Consider 36 molecules from patent publication US20090035306A1 (KALYPSYS, INC., priority 2006, published 2009).

As usually defined, the EC50 is the concentration giving half of the maximal effect.

Where only a bound is given, the exact number is not on record here.

For the experiment, the target named is T1, human TGR5 (Homo sapiens, UniProt Q8TDU6).
T1 construct: expressed in transfected cells
T1 sequence (Q8TDU6 1-330): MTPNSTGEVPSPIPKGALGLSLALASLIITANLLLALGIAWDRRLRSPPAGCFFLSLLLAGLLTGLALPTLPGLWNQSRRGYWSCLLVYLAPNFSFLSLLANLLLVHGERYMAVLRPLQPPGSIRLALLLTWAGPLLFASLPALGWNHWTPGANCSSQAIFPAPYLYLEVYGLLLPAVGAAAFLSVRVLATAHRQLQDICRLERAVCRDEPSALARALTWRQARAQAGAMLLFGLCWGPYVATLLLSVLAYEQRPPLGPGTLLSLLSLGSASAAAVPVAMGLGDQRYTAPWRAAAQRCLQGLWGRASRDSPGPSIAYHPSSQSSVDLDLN
Briefly: cAMP production assay in HEK293 cells stably expressing TGR5 (LANCE TR-FRET). Particulars: 30 minutes stimulation, read-out: cAMP Production in 293-TGR5 Cells EC50. The class given is cell-based. The protocol:
HEK293 cells stably expressing TGR5 (HEK293-TGR5) were established by stably transfecting HEK-293 cells with an expression vector (pcDNA 3.1, Invetrogen) inserted with human TGR5 cDNA using Fugene6 (Roche, Indianapolis, Ind.) according to conventional methods. Cells were grown in DMEM (invitrogen, Carlsbad, Calif.) supplemented with 10% FBS, 1% penicillin/streptomycin under geneticin selection. The presence of TGR5 transcripts in these cells was confirmed using branched DNA (bDNA, Genospectra, Inc., Fremont Calif.) following the manufacturer's protocol and using specific probes for human TGR5. cAMP production assay was performed in high throughput 1536 well format using LANCE cAMP detection kit (Perkin Elmer Inc., Boston, Mass.) according to the manufacturer's protocol. Briefly, HEK293-TGR5 cells were harvested using non-enzymatic cell dissociation buffer (Invitrogen, Carlsbad, Calif.) and suspended in DMEM supplemented with 0.1% FBS at a density of 800,000 cells/ml. Alexa antibody was added to the cell suspension, and 4 ul of the mixture was dispensed in white opaque tissue culture treated Greiner 1536 well plates (USA Scientific, Inc., Ocala, Fla.). After an overnight incubation at 37 C in an atmosphere of 10% CO2 and 95% humidity, 1 ul of 5 mM IBMX (Sigma, St. Louis, Mo.) solution in DMEM was dispensed for a final concentration of 1 mM. Cells were then stimulated with test compounds for 30 minutes, after which time 5 ul of detection reagent was added and incubated for 1-7 hrs at room temperature. TR-FRET signal was detected using the Viewlux (Perkin Elmer Inc., Boston Mass.). EC50 values were determined using Graph Pad Prizm analysis (GraphPad Software, Inc). The EC50 values for a wide range of bile acids generated from this assay were in agreement with the values published in the scientific literature. […] The symbol (+) denotes an EC50 value of ≦10 μM while the symbol (−) denotes an EC50 value of >10 μM (see Table 1).
For orientation: Cyclic AMP is a second messenger, typically raised through Gs and lowered through Gi signalling.
Take `CC(C)c1ccc(CNn2c(-c3ccc(F)cc3)nc3ccccc3c2=O)cc1` [Example 2, 2-(4-fluorophenyl)-3-(4-isopropylbenzylamino)quinazolin-4(3H)-one]: the EC50 is more than 10 µM. In the case of `O=c1c2ccccc2nc(-c2ccccc2F)n1NCc1cccc(Br)c1` [Example 3, 3-(3-bromobenzylamino)-2-(2-fluorophenyl)quinazolin-4(3H)-one] it was not above 10 µM; in that of `O=c1c2ccccc2nc(-c2ccccc2F)n1NCc1ccc(Cl)cc1Cl` [Example 4, 3-(2,4-dichlorobenzylamino)-2-(2-fluorophenyl)quinazolin-4(3H)-one], not above 10 µM; in that of `O=c1c2ccccc2nc(-c2ccccc2F)n1NCc1ccc(Br)cc1` [Example 5, 3-(4-bromobenzylamino)-2-(2-fluorophenyl)quinazolin-4(3H)-one], not above 10 µM.

Regarding `O=c1c2ccccc2nc(-c2ccccc2)n1NCc1ccccc1` [Example 6, 3-(benzylamino)-2-phenylquinazolin-4(3H)-one], the concentration giving a half-maximal response (EC50) is not above 10 µM. In the case of `O=c1c2ccccc2nc(-c2cccc(F)c2)n1NCc1ccc(F)cc1F` [Example 7, 3-(2,4-difluorobenzylamino)-2-(3-fluorophenyl)quinazolin-4(3H)-one] it was not above 10 µM; in that of `O=c1c2ccccc2nc(-c2ccccc2C(F)(F)F)n1NCc1ccc(Br)cc1` [Example 8, 3-(4-bromobenzylamino)-2-(2(trifluoromethyl)phenyl)quinazolin-4(3H)-one], not above 10 µM.

Regarding `O=c1c2ccccc2nc(-c2ccc(C(F)(F)F)cc2)n1NCc1ccc(Br)cc1` [Example 9, 3-(4-bromobenzylamino)-2-(4-(trifluoromethyl)phenyl)quinazolin-4(3H)-one], the EC50 was not above 10 µM. Consider `O=c1c2ccccc2nc(-c2ccccc2Cl)n1NCc1ccc(Br)cc1` [Example 10, 3-(4-bromobenzylamino)-2-(2-chlorophenyl)quinazolin-4(3H)-one], for which the 50% effective concentration (EC50) is not above 10 µM. In the case of `CC(C)(C)c1ccc(CNn2c(-c3ccccc3F)nc3ccccc3c2=O)cc1` [Example 11, 3-(4-tert-butylbenzylamino)-2-(2-fluorophenyl)quinazolin-4(3H)-one] it was more than 10 µM; in that of `O=c1c2ccccc2nc(-c2ccccc2F)n1NCc1ccc(F)cc1F` [Example 12, 3-(2,4-difluorobenzylamino)-2-(2-fluorophenyl)quinazolin-4(3H)-one], not above 10 µM; in that of `O=c1c2ccccc2nc(-c2ccccc2F)n1NCc1cc(F)cc(F)c1` [Example 13, 3-(3,5-difluorobenzylamino)-2-(2-fluorophenyl)quinazolin-4(3H)-one], not above 10 µM. In the case of `O=c1c2ccccc2nc(-c2ccccc2F)n1NCc1ccc(F)c(F)c1` [Example 14, 3-(3,4-difluorobenzylamino)-2-(2-fluorophenyl)quinazolin-4(3H)-one] it was not above 10 µM; in that of `Cc1ccccc1-c1nc2ccccc2c(=O)n1NCc1ccc(Br)cc1` [Example 15, 3-(4-bromobenzylamino)-2-o-tolylquinazolin-4(3H)-one], not above 10 µM; in that of `O=c1c2ccccc2nc(CCc2ccccc2)n1NCc1ccc(F)cc1F` [Example 16, 3-(2,4-difluorobenzylamino)-2-phenethylquinazolin-4(3H)-one], not above 10 µM. With `O=c1c2ccccc2nc(-c2ccccc2F)n1NCc1ccc(C(F)(F)F)cc1` [Example 17, 2-(2-fluorophenyl)-3-(4-(trifluoromethyl)benzylamino)quinazolin-4(3H)-one], the EC50 is not above 10 µM. Regarding `O=c1c2ccccc2nc(-c2ccccc2F)n1NCc1cccc(Cl)c1` [Example 18, 3-(3-chlorobenzylamino)-2-(2-fluorophenyl)quinazolin-4(3H)-one], the EC50 is not above 10 µM. On to `COc1ccccc1-c1nc2ccccc2c(=O)n1NCc1ccc(Br)cc1` [Example 19, 3-(4-bromobenzylamino)-2-(2-methoxyphenyl)quinazolin-4(3H)-one], for which the 50% effective concentration (EC50) is more than 10 µM. In the case of `O=c1c2ccccc2nc(-c2ccccc2F)n1NCc1cccc(C(F)(F)F)c1` [Example 20, 2-(2-fluorophenyl)-3-(3-(trifluoromethyl)benzylamino)quinazolin-4(3H)-one] it was not above 10 µM. In the case of `O=c1c2ccccc2nc(-c2ccccc2F)n1NCc1ccc(C(F)(F)F)c(F)c1` [Example 21, 3-(3-fluoro-4-(trifluoromethyl)benzylamino)-2-(2-fluorophenyl)quinazolin-4(3H)-one] it was not above 10 µM; in that of `Cc1ccc(CNn2c(-c3ccccc3F)nc3ccccc3c2=O)cc1` [Example 22, 2-(2-fluorophenyl)-3-(4-methylbenzylamino)quinazolin-4(3H)-one], not above 10 µM.

Take `O=c1c2ccccc2nc(-c2ccccc2F)n1NCc1ccc(OC(F)(F)F)cc1` [Example 23, 2-(2-fluorophenyl)-3-(4-(trifluoromethoxy)benzylamino)quinazolin-4(3H)-one]: the concentration for a half-maximal effect (EC50) is not above 10 µM.

For the molecule `Cc1ccc2c(=O)n(NCc3ccc(Br)cc3)c(-c3ccccc3F)nc2c1` [Example 24, 3-(4-bromobenzylamino)-2-(2-fluorophenyl)-7-methylquinazolin-4(3H)-one], the EC50 is not above 10 µM. In the case of `Cc1ccc2c(=O)n(NCc3ccc(F)cc3F)c(-c3ccccc3F)nc2c1` [Example 25, 3-(2,4-difluorobenzylamino)-2-(2-fluorophenyl)-7-methylquinazolin-4(3H)-one] it was not above 10 µM; in that of `COc1ccc2nc(-c3ccccc3F)n(NCc3ccc(Br)cc3)c(=O)c2c1` [Example 26, 3-(4-bromobenzylamino)-2-(2-fluorophenyl)-6-methoxy quinazolin-4(3H)-one], more than 10 µM; in that of `COc1ccc2nc(-c3ccccc3F)n(NCc3ccc(F)cc3F)c(=O)c2c1` [Example 27, 3-(2,4-difluorobenzylamino)-2-(2-fluorophenyl)-6-methoxy quinazolin-4(3H)-one], not above 10 µM.

As to `O=c1c2ccc(C(F)(F)F)cc2nc(-c2ccccc2F)n1NCc1ccc(Br)cc1` [Example 28, 3-(4-bromobenzylamino)-2-(2-fluorophenyl)-7-(trifluoromethyl)quinazolin-4(3H)-one], the EC50 was more than 10 µM.

In the case of `O=c1c2ccc(C(F)(F)F)cc2nc(-c2ccccc2F)n1NCc1ccc(F)cc1F` [Example 29, 3-(2,4-difluorobenzylamino)-2-(2-fluorophenyl)-7-(trifluoromethyl)quinazolin-4(3H)-one], the half-maximal effective concentration (EC50) is more than 10 µM. In the case of `O=c1c2ccc(C(F)(F)F)cc2nc(-c2ccccc2F)n1NCc1ccc(Cl)cc1` [Example 30, 3-(4-chlorobenzylamino)-2-(2-fluorophenyl)-7-(trifluoromethyl)quinazolin-4(3H)-one] it was more than 10 µM; in that of `O=c1c2ccccc2nc(-c2ccccn2)n1NCc1ccc(Br)cc1` [Example 31, 3-(4-bromobenzylamino)-2-(pyridin-2-yl)quinazolin-4(3H)-one], not above 10 µM; in that of `N#Cc1ccc(CNn2c(-c3ccc(F)cc3)nc3ccccc3c2=O)cc1` [Example 32, 4-((2-(4-fluorophenyl)-4-oxoquinazolin-3(4H)-ylamino)methyl)benzonitrile], not above 10 µM. In the case of `COc1ccc2c(=O)n(NCc3ccc(Br)cc3)c(-c3ccc(F)cc3)nc2c1` [Example 33, 3-(4-bromobenzylamino)-2-(4-fluorophenyl)-7-methoxyquinazolin-4(3H)-one] it was more than 10 µM; in that of `COc1ccc2c(=O)n(NCc3ccc(F)cc3F)c(-c3ccc(F)cc3)nc2c1` [Example 34, 3-(2,4-difluorobenzylamino)-2-(4-fluorophenyl)-7-methoxy quinazolin-4(3H)-one], more than 10 µM; in that of `COc1ccc2c(=O)n(NCc3ccc(Cl)cc3)c(-c3ccc(F)cc3)nc2c1` [Example 35, 3-(4-chlorobenzylamino)-2-(4-fluorophenyl)-7-methoxyquinazolin-4(3H)-one], more than 10 µM. In the case of `COc1ccc2c(=O)n(NCc3ccc(C(F)(F)F)cc3)c(-c3ccc(F)cc3)nc2c1` [Example 36, 2-(4-fluorophenyl)-7-methoxy-3-(4-(trifluoromethyl)benzylamino)quinazolin-4(3H)-one] it was more than 10 µM; in that of `O=c1c2ccccc2nc(-c2ccc(F)cc2)n1NCc1cccnc1` [Example 37, 2-(4-fluorophenyl)-3-(pyridin-3-ylmethylamino)quinazolin-4(3H)-one], more than 10 µM.
